Laboratory results from ChEMBL document CHEMBL1201862, “PubChem BioAssay data set” (2004).
Active and inactive are the calls of the source. Unless noted, the calls are words filed in the database; no cut-off is given here.

Legend:
[1] = Anti-IgM induced B cell proliferation of mouse primary lymphocytes. [Related pubchem assays: 1266, 1299, 1269, 1373, 1292, 1290, 1302, 1371, 1283, 1270, 1295, 1271, 1375, 1294, 1287, 1374, 1281, 1293, 1291, 1289, 1280, 465, 1368, 1364, 1282, 1372, 1369, 1370, 1367, 1366 ]; type: functional, cell-based
[2] = biological target: Protein kinase C theta type (Homo sapiens, UniProt Q04759); test: In Vitro Kinase Assay Using Purified Enzyme PKC-theta. [Related pubchem assays: 1299, 1270, 1295, 1375, 1287, 1281, 1293, 1291, 1289, 1280, 465, 1364, 1282, 1372, 1365, 1370, 1367, 1366, 1266, 1269, 1373, 1292, 1290, 1302, 1371, 1271, 1294, 1374, 1368, 1369 ]
MCF7 [3] = test: Cytotoxicity assay in MCF7 cells. [Related pubchem assays (depositor defined):AID1266, AID1269, AID1270, AID1271, AID1280, AID1281, AID1282, AID1283, AID1287, AID1289, AID1290, AID1291, AID1292, AID1293, AID1294, AID1295, AID1299, AID1302, AID1364, AID1365, AID1366, AID1367, AID1368, AID1369, AID1370, AID1371, AID1372, AID1374, AID1375, AID1384 …; type: functional, cell-based; details: Homo sapiens
[4] = biological target: Inhibitor of nuclear factor kappa-B kinase subunit beta (Homo sapiens, UniProt O14920); test: In Vitro Kinase Assay Using Purified Enzyme IKK-beta. [Related pubchem assays: 1266, 1299, 1269, 1373, 1292, 1290, 1302, 1371, 1283, 1270, 1295, 1271, 1375, 1294, 1287, 1374, 1281, 1293, 1291, 1289, 1280, 465, 1368, 1364, 1372, 1365, 1369, 1370, 1367, 1366 ]
HEK293 [5] = test: PMA/Ionomycin induced NF-kB luciferase assay in 293- NF-kB-Luc stable cells. [Related pubchem assays: 1299, 1270, 1295, 1375, 1287, 1281, 1293, 1291, 1289, 1280, 465, 1364, 1282, 1372, 1365, 1370, 1367, 1366, 1269, 1373, 1292, 1290, 1302, 1371, 1283, 1271, 1294, 1374, 1368, 1369 ]; type: functional, cell-based; details: Homo sapiens
[6] = biological target: Luciferin 4-monooxygenase (Photinus pyralis, UniProt P08659); test: In vitro luciferase assay using purified luciferase. [Related pubchem assays: 1299, 1270, 1295, 1375, 1287, 1281, 1293, 1291, 1289, 1280, 465, 1364, 1282, 1372, 1365, 1370, 1367, 1366, 1266, 1373, 1292, 1290, 1302, 1371, 1283, 1271, 1294, 1374, 1368, 1369 ]
MCF7 [7] = test: GM-Tri-DAP induced IL-8 production in MCF-7/NOD1 cells. [Related pubchem assays (depositor defined):AID1266, AID1269, AID1270, AID1271, AID1280, AID1281, AID1282, AID1283, AID1287, AID1289, AID1290, AID1291, AID1292, AID1293, AID1294, AID1295, AID1299, AID1302, AID1364, AID1365, AID1366, AID1367, AID1368, AID1369, AID1371, AID1372, AID1373 …; type: functional, cell-based; details: Homo sapiens
[8] = biological target: Protein kinase C beta type (Homo sapiens, UniProt P05771); test: In Vitro Kinase Assay Using Purified Enzyme PKC-beta. [Related pubchem assays: 1299, 1270, 1295, 1375, 1287, 1281, 1293, 1291, 1289, 465, 1364, 1282, 1372, 1365, 1370, 1367, 1366, 1266, 1269, 1373, 1292, 1290, 1302, 1371, 1283, 1271, 1294, 1374, 1368, 1369 ]
Jurkat [9] = test: IL-2 Production Assay in Jurkat T-cells Stimulated with anti-CD3/anti-CD28 antibodies. [Related pubchem assays: 1299, 1270, 1295, 1375, 1287, 1281, 1293, 1291, 1289, 1280, 465, 1364, 1282, 1372, 1365, 1370, 1367, 1366, 1266, 1269, 1373, 1292, 1290, 1302, 1371, 1283, 1294, 1374, 1368, 1369 ]; type: functional, cell-based; details: Homo sapiens
MCF7 [10] = test: PMA/Ionomycin induced NF-kB luciferase in MCF7 cells. [Related pubchem assays (depositor defined):AID1266, AID1269, AID1270, AID1271, AID1280, AID1281, AID1282, AID1283, AID1287, AID1289, AID1290, AID1291, AID1292, AID1293, AID1294, AID1295, AID1299, AID1302, AID1364, AID1365, AID1367, AID1368, AID1369, AID1370, AID1371, AID1372, AID1373, AID1374 …; type: functional, cell-based; details: Homo sapiens
HEK293 [11] = test: PMA/Ionomycin-induced IL-8 production in HEK293- NF-kB-Luc stable cells. [Related pubchem assays: 1299, 1295, 1375, 1287, 1281, 1293, 1291, 1289, 1280, 465, 1364, 1282, 1372, 1365, 1367, 1366, 1266, 1269, 1373, 1292, 1290, 1302, 1371, 1283, 1271, 1294, 1374, 1368, 1369 ]; type: functional, cell-based; details: Homo sapiens
Jurkat [12] = test: Cytotoxicity assay in Jurkat T cells. [Related pubchem assays (depositor defined):AID1266, AID1269, AID1270, AID1271, AID1280, AID1281, AID1282, AID1283, AID1287, AID1289, AID1290, AID1291, AID1292, AID1293, AID1294, AID1295, AID1299, AID1302, AID1364, AID1365, AID1366, AID1368, AID1369, AID1370, AID1371, AID1372, AID1373, AID1374, AID1375 …; type: functional, cell-based; details: Homo sapiens
PPC-1 = test: PMA/Ionomycin induced NF-kB luciferase in PPC-1 cells. [Related pubchem assays (depositor defined):AID1266, AID1269, AID1270, AID1271, AID1280, AID1281, AID1282, AID1283, AID1287, AID1289, AID1290, AID1291, AID1292, AID1293, AID1294, AID1295, AID1299, AID1302, AID1364, AID1365, AID1366, AID1367, AID1368, AID1369, AID1370, AID1371, AID1372, AID1373 …; type: functional, cell-based; details: Homo sapiens
HeLa [13] = test: Cytotoxicity Assay in HeLa Cells. [Related pubchem assays: 1299, 1270, 1295, 1375, 1287, 1281, 1293, 1291, 1289, 1280, 465, 1364, 1282, 1372, 1365, 1370, 1367, 1366, 1266, 1269, 1373, 1292, 1290, 1371, 1283, 1271, 1294, 1374, 1368, 1369 ]; type: functional, cell-based; details: Homo sapiens
[14] = Anti-cd3/cd28 induced T cell proliferation of mouse primary lymphocytes. [Related pubchem assays: 1299, 1270, 1295, 1375, 1287, 1281, 1293, 1291, 1289, 1280, 465, 1282, 1372, 1365, 1370, 1367, 1366, 1266, 1269, 1373, 1292, 1290, 1302, 1371, 1283, 1271, 1294, 1374, 1368, 1369 ]; type: functional, cell-based
HEK293 [15] = test: Cytotoxicity assay in HEK293 cells. [Related pubchem assays (depositor defined):AID1266, AID1269, AID1270, AID1271, AID1280, AID1281, AID1282, AID1283, AID1287, AID1289, AID1290, AID1291, AID1292, AID1293, AID1294, AID1295, AID1299, AID1302, AID1364, AID1365, AID1366, AID1367, AID1369, AID1370, AID1371, AID1372, AID1373, AID1374, AID1375, AID1384 …; type: functional, cell-based; details: Homo sapiens
HeLa [16] = test: PMA/Ionomycin induced NF-kB luciferase in HeLa cells. [Related pubchem assays (depositor defined):AID1266, AID1269, AID1270, AID1271, AID1280, AID1281, AID1282, AID1283, AID1287, AID1289, AID1290, AID1291, AID1292, AID1293, AID1294, AID1295, AID1299, AID1302, AID1364, AID1365, AID1366, AID1367, AID1368, AID1369, AID1370, AID1371, AID1372, AID1373 …; type: functional, cell-based; details: Homo sapiens
THP-1 = test: LPS induced NF-kB in THP.1 cells. [Related pubchem assays (depositor defined):AID1266, AID1269, AID1270, AID1271, AID1280, AID1281, AID1282, AID1283, AID1287, AID1289, AID1290, AID1291, AID1292, AID1293, AID1294, AID1295, AID1299, AID1302, AID1364, AID1365, AID1366, AID1367, AID1368, AID1370, AID1371, AID1372, AID1373, AID1374, AID1375, AID1384 …; type: functional, cell-based; details: Homo sapiens
HEK293 [17] = test: TNF Induced NF-kB Luciferase in 293-NF-kB-Luc Stable Cells. [Related pubchem assays: 1266, 1299, 1269, 1373, 1292, 1290, 1302, 1371, 1283, 1270, 1295, 1271, 1375, 1294, 1374, 1281, 1293, 1291, 1289, 1280, 465, 1368, 1364, 1282, 1372, 1365, 1369, 1370, 1367, 1366 ]; type: functional, cell-based; details: Homo sapiens
HEK293 [18] = test: cells; details: Homo sapiens
HEK293 [19] = test: cells; details: Homo sapiens; remark: listed apart in the source
HEK293 [20] = test: cells; details: Homo sapiens; remark: listed apart in the source
HEK293 [21] = test: cells; details: Homo sapiens; remark: listed apart in the source
HEK293 [22] = test: cells; details: Homo sapiens; remark: listed apart in the source
HEK293 [23] = test: cells; details: Homo sapiens; remark: listed apart in the source
HEK293 [24] = test: cells; details: Homo sapiens; remark: listed apart in the source
HEK293 [25] = test: cells; details: Homo sapiens; remark: listed apart in the source
HEK293 [26] = test: cells; details: Homo sapiens; remark: listed apart in the source
HEK293 [27] = test: cells; details: Homo sapiens; remark: listed apart in the source

Chain of Inhibitor of nuclear factor kappa-B kinase subunit beta (O14920 whole entry): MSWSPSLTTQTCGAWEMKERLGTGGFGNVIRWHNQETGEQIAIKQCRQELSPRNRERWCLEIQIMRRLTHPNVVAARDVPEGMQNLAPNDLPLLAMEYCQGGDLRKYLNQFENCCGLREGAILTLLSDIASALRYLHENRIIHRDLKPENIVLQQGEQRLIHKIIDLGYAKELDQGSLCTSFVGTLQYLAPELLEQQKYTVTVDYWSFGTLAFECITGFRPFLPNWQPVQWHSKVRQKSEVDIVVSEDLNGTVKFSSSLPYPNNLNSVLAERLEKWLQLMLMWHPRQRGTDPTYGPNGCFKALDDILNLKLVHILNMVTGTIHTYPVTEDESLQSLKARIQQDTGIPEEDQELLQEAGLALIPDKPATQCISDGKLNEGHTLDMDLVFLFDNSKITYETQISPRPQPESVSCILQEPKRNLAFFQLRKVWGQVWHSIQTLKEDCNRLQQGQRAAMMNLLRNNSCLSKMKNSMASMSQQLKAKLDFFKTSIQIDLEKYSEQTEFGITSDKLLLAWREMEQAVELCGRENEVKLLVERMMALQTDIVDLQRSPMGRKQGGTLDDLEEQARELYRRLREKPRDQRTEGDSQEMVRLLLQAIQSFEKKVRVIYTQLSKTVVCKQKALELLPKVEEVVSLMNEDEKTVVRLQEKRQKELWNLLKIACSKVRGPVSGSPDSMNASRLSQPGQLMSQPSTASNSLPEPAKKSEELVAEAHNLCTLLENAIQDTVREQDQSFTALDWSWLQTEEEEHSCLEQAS
Chain of Protein kinase C beta type (P05771 whole entry): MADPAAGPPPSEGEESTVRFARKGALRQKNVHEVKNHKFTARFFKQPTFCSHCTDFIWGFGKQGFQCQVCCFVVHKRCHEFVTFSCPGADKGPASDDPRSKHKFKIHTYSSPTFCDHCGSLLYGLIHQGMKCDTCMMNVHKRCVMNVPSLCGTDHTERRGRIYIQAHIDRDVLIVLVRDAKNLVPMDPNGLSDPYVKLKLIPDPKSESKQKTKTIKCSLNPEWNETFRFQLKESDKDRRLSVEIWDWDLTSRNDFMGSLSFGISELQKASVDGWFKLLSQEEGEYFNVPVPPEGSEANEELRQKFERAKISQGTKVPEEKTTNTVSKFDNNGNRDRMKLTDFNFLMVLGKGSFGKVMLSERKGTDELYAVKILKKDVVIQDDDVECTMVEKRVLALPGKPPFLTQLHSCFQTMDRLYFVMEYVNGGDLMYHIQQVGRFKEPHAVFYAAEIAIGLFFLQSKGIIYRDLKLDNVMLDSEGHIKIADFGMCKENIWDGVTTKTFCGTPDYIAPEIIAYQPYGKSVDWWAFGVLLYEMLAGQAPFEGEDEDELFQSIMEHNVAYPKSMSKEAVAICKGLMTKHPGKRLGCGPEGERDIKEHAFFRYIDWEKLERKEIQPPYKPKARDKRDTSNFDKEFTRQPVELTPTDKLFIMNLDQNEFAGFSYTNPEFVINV
Chain of Luciferin 4-monooxygenase (P08659 whole entry): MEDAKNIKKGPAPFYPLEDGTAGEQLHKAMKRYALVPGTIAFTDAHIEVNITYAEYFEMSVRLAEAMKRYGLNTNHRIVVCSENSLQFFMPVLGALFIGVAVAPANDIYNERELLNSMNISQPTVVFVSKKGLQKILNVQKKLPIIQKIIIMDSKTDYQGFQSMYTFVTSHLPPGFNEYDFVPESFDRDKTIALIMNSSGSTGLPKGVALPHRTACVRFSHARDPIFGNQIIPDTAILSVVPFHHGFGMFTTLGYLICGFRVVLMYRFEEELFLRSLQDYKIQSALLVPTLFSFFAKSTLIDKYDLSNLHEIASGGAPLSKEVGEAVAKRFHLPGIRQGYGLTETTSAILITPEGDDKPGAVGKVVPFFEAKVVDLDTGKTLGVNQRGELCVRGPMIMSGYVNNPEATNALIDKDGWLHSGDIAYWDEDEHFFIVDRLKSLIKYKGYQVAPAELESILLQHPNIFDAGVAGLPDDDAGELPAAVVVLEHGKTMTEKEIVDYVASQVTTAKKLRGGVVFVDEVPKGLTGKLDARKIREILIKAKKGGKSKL
Chain of Protein kinase C theta type (Q04759 whole entry): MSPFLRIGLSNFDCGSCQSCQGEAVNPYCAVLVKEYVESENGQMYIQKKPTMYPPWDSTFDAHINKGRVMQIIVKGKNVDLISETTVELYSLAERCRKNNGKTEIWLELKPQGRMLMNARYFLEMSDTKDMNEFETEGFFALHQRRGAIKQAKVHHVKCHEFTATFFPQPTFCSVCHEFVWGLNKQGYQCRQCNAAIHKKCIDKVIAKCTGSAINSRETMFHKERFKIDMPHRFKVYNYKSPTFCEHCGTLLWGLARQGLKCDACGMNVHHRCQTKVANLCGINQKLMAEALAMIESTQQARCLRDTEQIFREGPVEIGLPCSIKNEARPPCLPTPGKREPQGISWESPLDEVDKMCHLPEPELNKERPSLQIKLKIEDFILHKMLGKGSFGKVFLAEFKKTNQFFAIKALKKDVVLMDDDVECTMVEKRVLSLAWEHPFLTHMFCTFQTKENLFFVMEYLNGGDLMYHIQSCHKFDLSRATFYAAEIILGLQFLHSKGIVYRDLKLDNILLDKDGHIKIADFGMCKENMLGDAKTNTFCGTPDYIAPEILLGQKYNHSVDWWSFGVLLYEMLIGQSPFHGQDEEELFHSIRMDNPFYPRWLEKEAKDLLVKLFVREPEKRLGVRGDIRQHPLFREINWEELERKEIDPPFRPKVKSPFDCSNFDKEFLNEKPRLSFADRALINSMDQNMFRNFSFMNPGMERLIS

## Cc1cc2nc(NCCCO)n(CC(=O)c3cc(C(C)(C)C)c(O)c(C(C)(C)C)c3)c2cc1C
[1]
  EC50: 2.81 µM (active)
[2]
  EC50: > 4 µM (not active)
MCF7 [3]
  EC50: > 8 µM (inactive)
[4]
  EC50: > 4 µM (not active)
HEK293 [5]
  EC50: 0.129 µM (active)
[6]
  EC50: > 8 µM (not active)
MCF7 [7]
  EC50: > 8 µM (inactive)
[8]
  EC50: > 4 µM (not active)
Jurkat [9]
  EC50: 2.57 µM (active)
MCF7 [10]
  EC50: > 4 µM (inactive)
HEK293 [11]
  EC50: 0.0604 µM (active)
Jurkat [12]
  EC50: > 8 µM (inactive)
PPC-1
  EC50: > 4 µM (inactive)
HeLa [13]
  EC50: > 4 µM (not active)
[14]
  EC50: > 4 µM (not active)
HEK293 [15]
  EC50: > 8 µM (inactive)
HeLa [16]
  EC50: > 4 µM (inactive)
THP-1
  EC50: 5.74 µM (inactive)
HEK293 [17]
  EC50: > 8 µM (not active)
HEK293 [18]
  EC50: > 4 µM (not active)
HEK293 [19]
  EC50: > 4 µM (not active)
HEK293 [20]
  EC50: > 4 µM (not active)
HEK293 [21]
  EC50: > 4 µM (inactive)
HEK293 [22]
  EC50: > 4 µM (not active)
HEK293 [23]
  EC50: > 4 µM (not active)
HEK293 [24]
  EC50: 0.672 µM (active)
HEK293 [25]
  EC50: > 4 µM (inactive)
HEK293 [26]
  EC50: 0.23 µM (active)
HEK293 [27]
  EC50: > 4 µM (not active)
